≈ marks a conversion by molar mass, not a printed value. Like-named read-outs stand apart in the source and are kept apart here.
How the values were obtained:
Corynebacterium = assay: microbe, parasite or virus in culture; format: cell-based; conditions: read-out: MIC90 of Standard Topical Agents
Procedure: (§2) Control tubes containing only water or formulation buffer were prepared for each isolate. Initial growth controls were determined by removing 10 μL from the water control tube and diluting it by 100 fold. From this dilution, 10 μL was used for inoculation and for spreading over the surface onto Laked Blood Agar (LBA) (Anaerobe Systems, Morgan Hill, Calif.) plates. The tubes and plates were incubated in an anaerobic atmosphere at 37° C. for 48 h. […] MBC50 and 90 values represent where 50 and 90%, respectively, of the tested strain's MBC values are equal to or less than the indicated concentration.

Enterococcus = format: cell-based
Procedure: as §2

S. aureus = assay: Comparison of XMP.629 with standard topical agents (MIC90/MBC); format: cell-based, Staphylococcus aureus; conditions: Staphylococcus aureus
Procedure: as §2

Streptococcus mutans = assay: MIC, panel of human pathogens, standardized NCCLS protocols; format: cell-based; conditions: read-out: Minimum Inhibitory Concentrations
P. acnes = assay: microbe, parasite or virus in culture; conditions: Cutibacterium acnes, read-out: MIC90 of Standard Topical Agents
Procedure: An in vitro assessment of antibiotic activity in XMP.629 and various known antibiotics against a representative panel of bacterial strains associated with acne was conducted. A broth dilution methodology was employed using guidelines established by National Committee for Clinical Laboratory Standards (NCCLS) for anaerobic organisms to establish an antibacterial profile for XMP.629. Assays to determine the minimal bactericidal concentrations (MBC) and minimal inhibitory concentration (MIC) were conducted for XMP.629 and other known antibiotics.
Inoculum from a representative panel of bacterial strains associated with acne, such as P. acnes, P. avidum, P. granulosum, and Staphylococcus epidermis was prepared by suspending approximately 5-10 isolated bacterial colonies in pre-reduced MicroScan® Inoculum Water (Dade Behring, Deerfield, Ill.), and growing the bacterial suspension to log phase (approximately 48 hrs). An inoculum of between 1-5×10^6/mL was achieved by adding 100 μL of the suspension to 25 mL Brain Heart Infusion Broth (BHI) (Anaerobe Systems, Morgan Hill, Calif.).
A stock solution of XMP.629 dissolved in water at a concentration of 4.0 mg/mL was prepared. Dilute solutions of XMP.629 at concentrations ranging from about 1.25 to about 160 μg/mL were made in either water or formulation buffer (130 mM sodium chloride, 0.2% P103 (poloxamer 333), and 0.10% EDTA, pH 7.3).
Control tubes containing only water or formulation buffer were prepared for each isolate. Initial growth controls were determined by removing 10 μL from the water control tube and diluting it by 100 fold. From this dilution, 10 μL was used for inoculation and for spreading over the surface onto Laked Blood Agar (LBA) (Anaerobe Systems, Morgan Hill, Calif.) plates. The tubes and plates were incubated in an anaerobic atmosphere at 37° C. for 48 h.

Clostridium difficile = assay: microbe, parasite or virus in culture; conditions: Clostridioides difficile, read-out: Minimum Inhibitory Concentrations
[1] = test system: Enterococcus faccium (VRE); assay: microbe, parasite or virus in culture; conditions: read-out: Minimum Inhibitory Concentrations
Propionibacterium acnes = assay: microbe, parasite or virus in culture; conditions: Cutibacterium acnes, read-out: Minimum Inhibitory Concentrations
Staphylococcus aureus = assay: microbe, parasite or virus in culture
Streptococcus sobrinus = assay: microbe, parasite or virus in culture; conditions: read-out: Minimum Inhibitory Concentrations
[2] = test system: Actinobacillus actinomycetemcomitans; assay: microbe, parasite or virus in culture; format: cell-based; conditions: Aggregatibacter actinomycetemcomitans; Actinobacillus actinomycetemcomitans 43718; read-out: Minimum Inhibitory Concentrations
Procedure: (§1) Acne vulgaris may involve a microbial consortium. Although P. acnes may be a prominent member of such a consortium, other uncharacterized bacteria may also participate. The microbial activity of XMP.629 as an acetate gel as described in Example 5 and other commonly used antibiotics was evaluated against a panel of human pathogens using standardized NCCLS protocols. […] Lesser potency was observed against the gram-negative organisms B. fragilis, B. cepacia, P. mirabilis and S. marcescens, which are often refractory to many antimicrobial compounds.

Burkholderia cepacia = assay: microbe, parasite or virus in culture; format: cell-based; conditions: Burkholderia cepacia 25416; read-out: Minimum Inhibitory Concentrations
Procedure: as §1

Escherichia coli = assay: microbe, parasite or virus in culture; format: cell-based; conditions: Escherichia coli, read-out: Minimum Inhibitory Concentrations
Procedure: as §1

Klebsiella pneumoniae = assay: microbe, parasite or virus in culture; format: cell-based; conditions: Klebsiella pneumoniae, read-out: Minimum Inhibitory Concentrations
Procedure: as §1

Porphyromonas gingivalis = assay: microbe, parasite or virus in culture; format: cell-based; conditions: Porphyromonas gingivalis 33277; read-out: Minimum Inhibitory Concentrations
Procedure: as §1

Prevotella intermedia = assay: microbe, parasite or virus in culture; format: cell-based; conditions: Prevotella intermedia 25261; read-out: Minimum Inhibitory Concentrations
Procedure: as §1

Proteus mirabilis = assay: microbe, parasite or virus in culture; format: cell-based; conditions: Proteus mirabilis 29852; read-out: Minimum Inhibitory Concentrations
Procedure: as §1

Salmonella ryphimurium = assay: microbe, parasite or virus in culture; format: cell-based; conditions: Salmonella ryphimurium SL770; read-out: Minimum Inhibitory Concentrations
Procedure: as §1

Serratia marcescens = assay: microbe, parasite or virus in culture; format: cell-based; conditions: Serratia marcescens 13880; read-out: Minimum Inhibitory Concentrations
Procedure: as §1

Pseudomonas aeruginosa = assay: microbe, parasite or virus in culture
Enterococcus hirae = assay: microbe, parasite or virus in culture; conditions: read-out: Minimum Inhibitory Concentrations
Macrococcus caseolyticus = assay: microbe, parasite or virus in culture; conditions: Macrococcoides caseolyticum, read-out: Minimum Inhibitory Concentrations
Streptococcus pneumoniae = assay: microbe, parasite or virus in culture; conditions: read-out: Minimum Inhibitory Concentrations

With `CN[C@H](CC(C)C)C(=O)N[C@H]1C(=O)N[C@@H](CC(N)=O)C(=O)N[C@H]2C(=O)N[C@H]3C(=O)N[C@H](C(=O)N[C@H](C(=O)O)c4cc(O)cc(O)c4-c4cc3ccc4O)[C@H](O)c3ccc(c(Cl)c3)Oc3cc2cc(c3O[C@@H]2O[C@H](CO)[C@@H](O)[C@H](O)[C@H]2O[C@H]2C[C@](C)(N)[C@H](O)[C@H](C)O2)Oc2ccc(cc2Cl)[C@H]1O` [Vancomycin] the MIC90 (Corynebacterium) was 0.5 µg/mL (≈ 0.345 µM), the “MIC90 of Standard Topical Agents” value (Enterococcus) was 1.0/NE and the MIC90 (S. aureus) was 4 µg/mL (≈ 2.76 µM). It also gave an MIC (Streptococcus mutans; Streptococcus mutans) of 2 µg/mL (≈ 1.38 µM), an MIC90 (P. acnes) of 2 µg/mL (≈ 1.38 µM) and an MIC (Clostridium difficile) of 1 µg/mL (≈ 0.69 µM). For the same compound, the MIC [1] was > 64 µg/mL, the MIC (Propionibacterium acnes) was 2 µg/mL (≈ 1.38 µM) and the MIC (Staphylococcus aureus; BAA38|MRSA, read-out: Minimum Inhibitory Concentrations, Staphylococcus aureus BAA-38 (MRSA)) was 1 µg/mL (≈ 0.69 µM). The MIC (Staphylococcus aureus; read-out: Minimum Inhibitory Concentrations, Staphylococcus aureus 6258) was 2 µg/mL (≈ 1.38 µM), the MIC (Staphylococcus aureus; read-out: Minimum Inhibitory Concentrations, Staphylococcus aureus 11371) was 1 µg/mL (≈ 0.69 µM) and the MIC (Staphylococcus aureus; read-out: Minimum Inhibitory Concentrations, Staphylococcus aureus 12598) was 1.25 µg/mL (≈ 0.863 µM). For the same compound, the MIC (Staphylococcus aureus; read-out: Minimum Inhibitory Concentrations, Staphylococcus aureus 19636) was ≤ 1 µg/mL and the MIC (Streptococcus sobrinus) was 1 µg/mL (≈ 0.69 µM).
For `O=C(O)c1cn(C2CC2)c2cc(N3CCNCC3)c(F)cc2c1=O` [Ciprofloxacin], the MIC [2] was ≤ 1 µg/mL, the MIC (Burkholderia cepacia) was 1 µg/mL (≈ 3.02 µM) and the MIC (Escherichia coli; Escherichia coli 07:K1) was ≤ 0.25 µg/mL. The MIC (Escherichia coli; Escherichia coli 0111:B4) was ≤ 0.063 µg/mL, the MIC (Klebsiella pneumoniae; Klebsiella pneumoniae 19645) was 0.13 µg/mL (≈ 0.392 µM) and the MIC (Klebsiella pneumoniae; Klebsiella pneumoniae 29011) was ≤ 0.063 µg/mL. For the same compound, the MIC (Porphyromonas gingivalis) was ≤ 1 µg/mL, the MIC (Prevotella intermedia) was ≤ 1 µg/mL and the MIC (Proteus mirabilis) was ≤ 0.063 µg/mL. The MIC (Salmonella ryphimurium) was ≤ 1 µg/mL, the MIC (Serratia marcescens) was 0.06 µg/mL (≈ 0.181 µM) and the MIC (Streptococcus mutans; Streptococcus mutans 25175) was 2 µg/mL (≈ 6.04 µM). The MIC (Pseudomonas aeruginosa; read-out: Minimum Inhibitory Concentrations, Pseudomonas aeruginosa 9027) was 0.13 µg/mL (≈ 0.392 µM), the MIC (Pseudomonas aeruginosa; read-out: Minimum Inhibitory Concentrations, Pseudomonas aeruginosa 19660) was 0.13 µg/mL (≈ 0.392 µM) and the MIC (Pseudomonas aeruginosa; read-out: Minimum Inhibitory Concentrations, Pseudomonas aeruginosa 27853) was ≤ 1 µg/mL. The MIC (Pseudomonas aeruginosa; read-out: Minimum Inhibitory Concentrations, Pseudomonas aeruginosa XS-65 (MDR)) was ≤ 1 µg/mL, the MIC [1] was 64 µg/mL (≈ 193 µM) and the MIC (Enterococcus hirae) was ≤ 1 µg/mL. The MIC (Macrococcus caseolyticus) was ≤ 1 µg/mL, the MIC (Streptococcus pneumoniae) was ≤ 1 µg/mL and the MIC (Streptococcus sobrinus) was 2 µg/mL (≈ 6.04 µM).

— patent US20050148495A1, “Methods and materials including for treating acne” (priority 2003, published 2005)
